Laboratory results published in publication PMC11314561, “Design and Synthesis of Novel Aminoindazole-pyrrolo[2,3-b]pyridine Inhibitors of IKKα That Selectively Perturb Cellular Non-Canonical NF-κB Signalling” (Molecules, 2024).

Key:
Experiment in all cases: kinase panel
Format in all cases: biochemical
[1] = target: CDK6/cyclinD3(h) (Homo sapiens, UniProt Q00534)
Excerpt: (§1) We profiled three compounds from the series across the kinome (Table S1).
(§2) Ta b l e S1. The % inhibition of compounds 4, 5r [SU1261], and 6g [SU1349] against a
(§3) panel of kinase enzymes. We proϐiled three compounds from the series across 231
(§4) kinases. For SU1349, given its structural similarity with SU1261, we selected 98 from the
(§5) Tested kinase % inhibiƟon

[2] = target: CK2(h) (Homo sapiens, UniProt P68400)
Excerpt: as §1, §2, §3, §4, §5

[3] = target: ErbB4(h) (Homo sapiens, UniProt Q15303)
Excerpt: as §1, §2, §3, §4, §5

[4] = target: Flt1(h) (Homo sapiens, UniProt P17948)
Excerpt: as §1, §2, §3, §4, §5

[5] = target: T1, GCK(h) (Homo sapiens, UniProt Q12851)
T1 sequence (Q12851 1-820): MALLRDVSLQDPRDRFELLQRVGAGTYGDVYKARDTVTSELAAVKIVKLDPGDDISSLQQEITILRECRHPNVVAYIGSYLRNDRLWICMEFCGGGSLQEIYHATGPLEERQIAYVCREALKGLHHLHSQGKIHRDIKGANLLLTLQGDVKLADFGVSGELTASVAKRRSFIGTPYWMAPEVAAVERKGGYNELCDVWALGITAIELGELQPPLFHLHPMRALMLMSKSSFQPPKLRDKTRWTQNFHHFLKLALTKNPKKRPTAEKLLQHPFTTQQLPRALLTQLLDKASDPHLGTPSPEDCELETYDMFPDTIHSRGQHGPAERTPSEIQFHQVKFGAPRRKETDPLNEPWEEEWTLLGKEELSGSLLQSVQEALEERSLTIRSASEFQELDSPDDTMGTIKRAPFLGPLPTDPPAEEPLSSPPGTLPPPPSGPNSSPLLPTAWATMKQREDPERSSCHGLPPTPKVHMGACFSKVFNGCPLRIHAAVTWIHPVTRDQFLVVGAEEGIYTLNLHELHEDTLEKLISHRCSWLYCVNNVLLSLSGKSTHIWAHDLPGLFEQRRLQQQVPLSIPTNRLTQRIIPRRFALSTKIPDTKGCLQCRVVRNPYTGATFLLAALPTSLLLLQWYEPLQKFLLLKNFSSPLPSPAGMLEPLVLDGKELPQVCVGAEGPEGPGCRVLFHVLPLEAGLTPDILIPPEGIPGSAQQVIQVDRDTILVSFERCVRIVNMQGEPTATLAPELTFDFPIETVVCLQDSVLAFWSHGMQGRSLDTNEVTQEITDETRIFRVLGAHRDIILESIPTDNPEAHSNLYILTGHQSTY
Excerpt: as §1, §2, §3, §4, §5

[6] = target: MARK1(h) (Homo sapiens, UniProt Q9P0L2)
Excerpt: as §1, §2, §3, §4, §5

[7] = target: Pim-1(h) (Homo sapiens, UniProt P11309)
Excerpt: as §1, §2, §3, §4, §5

[8] = target: MSK1(h) (Homo sapiens, UniProt O75582)
Excerpt: as §1, §2, §3, §4, §5

[9] = target: T2, TBK1(h) (Homo sapiens, UniProt Q9UHD2)
T2 sequence (Q9UHD2 1-729): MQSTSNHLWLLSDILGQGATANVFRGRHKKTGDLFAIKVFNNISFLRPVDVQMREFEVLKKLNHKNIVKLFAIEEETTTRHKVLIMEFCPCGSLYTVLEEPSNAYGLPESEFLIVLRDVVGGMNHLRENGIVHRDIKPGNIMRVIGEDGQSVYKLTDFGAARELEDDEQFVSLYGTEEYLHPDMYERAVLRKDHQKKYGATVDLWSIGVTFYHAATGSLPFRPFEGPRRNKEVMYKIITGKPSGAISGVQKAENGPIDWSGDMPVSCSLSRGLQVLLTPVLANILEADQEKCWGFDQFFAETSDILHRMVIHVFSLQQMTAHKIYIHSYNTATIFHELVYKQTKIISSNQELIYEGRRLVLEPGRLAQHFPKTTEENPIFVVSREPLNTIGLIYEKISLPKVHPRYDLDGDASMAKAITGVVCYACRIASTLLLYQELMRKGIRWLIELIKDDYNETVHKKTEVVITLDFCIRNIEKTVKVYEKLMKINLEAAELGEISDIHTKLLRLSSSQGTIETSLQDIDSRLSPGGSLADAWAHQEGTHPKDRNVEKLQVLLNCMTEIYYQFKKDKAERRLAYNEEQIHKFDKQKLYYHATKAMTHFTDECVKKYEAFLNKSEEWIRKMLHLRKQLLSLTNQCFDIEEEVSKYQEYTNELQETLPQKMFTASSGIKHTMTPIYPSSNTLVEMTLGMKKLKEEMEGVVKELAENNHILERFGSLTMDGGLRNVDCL
Excerpt: as §1, §2, §3, §4, §5

[10] = target: c-RAF(h) (Homo sapiens, UniProt P04049)
Excerpt: as §1, §2, §3, §4, §5

[11] = target: HIPK1(h) (Homo sapiens, UniProt Q86Z02)
Excerpt: as §1, §2, §3, §4, §5

[12] = target: CDK5/p25(h) (Homo sapiens, UniProt Q00535)
Excerpt: as §1, §2, §3, §4, §5

[13] = target: T3, SGK(h) (Homo sapiens, UniProt O00141)
T3 sequence (O00141 1-431): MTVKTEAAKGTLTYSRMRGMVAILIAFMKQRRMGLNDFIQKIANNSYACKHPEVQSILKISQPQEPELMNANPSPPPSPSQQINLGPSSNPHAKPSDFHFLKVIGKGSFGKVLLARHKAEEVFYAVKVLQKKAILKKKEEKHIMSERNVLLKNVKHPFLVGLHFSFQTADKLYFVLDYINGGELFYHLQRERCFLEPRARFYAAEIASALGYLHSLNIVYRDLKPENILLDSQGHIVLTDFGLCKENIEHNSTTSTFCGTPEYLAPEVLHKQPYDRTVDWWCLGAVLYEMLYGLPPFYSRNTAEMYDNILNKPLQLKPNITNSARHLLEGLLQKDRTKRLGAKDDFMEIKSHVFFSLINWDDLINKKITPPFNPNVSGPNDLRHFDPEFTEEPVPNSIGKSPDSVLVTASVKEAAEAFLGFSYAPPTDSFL
Excerpt: as §1, §2, §3, §4, §5

[14] = target: FGFR3(h) (Homo sapiens, UniProt P22607)
Excerpt: as §1, §2, §3, §4, §5

Sequence of ErbB4(h) (Q15303 26-1308): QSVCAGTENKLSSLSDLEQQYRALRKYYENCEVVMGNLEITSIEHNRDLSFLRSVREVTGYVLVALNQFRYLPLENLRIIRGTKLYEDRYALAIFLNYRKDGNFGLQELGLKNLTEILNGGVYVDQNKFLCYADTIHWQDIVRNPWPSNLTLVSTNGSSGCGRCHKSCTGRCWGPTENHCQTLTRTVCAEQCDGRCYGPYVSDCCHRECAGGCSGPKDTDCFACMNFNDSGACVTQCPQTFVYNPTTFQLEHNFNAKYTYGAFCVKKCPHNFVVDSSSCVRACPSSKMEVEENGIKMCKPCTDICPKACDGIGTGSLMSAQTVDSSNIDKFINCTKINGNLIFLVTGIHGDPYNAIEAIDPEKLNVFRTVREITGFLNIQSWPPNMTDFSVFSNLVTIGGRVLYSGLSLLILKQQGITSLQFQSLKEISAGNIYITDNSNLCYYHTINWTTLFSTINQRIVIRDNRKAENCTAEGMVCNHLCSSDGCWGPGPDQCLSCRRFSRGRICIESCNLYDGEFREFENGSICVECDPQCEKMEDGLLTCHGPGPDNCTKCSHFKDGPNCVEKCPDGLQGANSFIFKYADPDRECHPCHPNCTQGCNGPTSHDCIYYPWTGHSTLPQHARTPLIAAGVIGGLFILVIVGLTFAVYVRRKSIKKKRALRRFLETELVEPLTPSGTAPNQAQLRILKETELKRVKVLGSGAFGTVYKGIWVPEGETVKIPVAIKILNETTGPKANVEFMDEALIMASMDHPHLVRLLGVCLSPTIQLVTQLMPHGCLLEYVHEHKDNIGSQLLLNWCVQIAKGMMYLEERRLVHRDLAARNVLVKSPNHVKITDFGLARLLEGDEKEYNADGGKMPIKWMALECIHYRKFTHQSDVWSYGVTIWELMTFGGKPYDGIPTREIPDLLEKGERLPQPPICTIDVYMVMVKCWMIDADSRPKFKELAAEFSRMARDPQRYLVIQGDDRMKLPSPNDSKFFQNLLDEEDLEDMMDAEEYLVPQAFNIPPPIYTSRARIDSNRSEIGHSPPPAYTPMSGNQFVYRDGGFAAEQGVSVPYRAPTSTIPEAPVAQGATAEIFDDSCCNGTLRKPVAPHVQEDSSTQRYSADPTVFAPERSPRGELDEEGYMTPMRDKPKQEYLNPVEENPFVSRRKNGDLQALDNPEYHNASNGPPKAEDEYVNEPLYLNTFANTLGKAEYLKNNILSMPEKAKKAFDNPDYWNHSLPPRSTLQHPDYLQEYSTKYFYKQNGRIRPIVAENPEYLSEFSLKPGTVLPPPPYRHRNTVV
Sequence of c-RAF(h) (P04049 whole entry): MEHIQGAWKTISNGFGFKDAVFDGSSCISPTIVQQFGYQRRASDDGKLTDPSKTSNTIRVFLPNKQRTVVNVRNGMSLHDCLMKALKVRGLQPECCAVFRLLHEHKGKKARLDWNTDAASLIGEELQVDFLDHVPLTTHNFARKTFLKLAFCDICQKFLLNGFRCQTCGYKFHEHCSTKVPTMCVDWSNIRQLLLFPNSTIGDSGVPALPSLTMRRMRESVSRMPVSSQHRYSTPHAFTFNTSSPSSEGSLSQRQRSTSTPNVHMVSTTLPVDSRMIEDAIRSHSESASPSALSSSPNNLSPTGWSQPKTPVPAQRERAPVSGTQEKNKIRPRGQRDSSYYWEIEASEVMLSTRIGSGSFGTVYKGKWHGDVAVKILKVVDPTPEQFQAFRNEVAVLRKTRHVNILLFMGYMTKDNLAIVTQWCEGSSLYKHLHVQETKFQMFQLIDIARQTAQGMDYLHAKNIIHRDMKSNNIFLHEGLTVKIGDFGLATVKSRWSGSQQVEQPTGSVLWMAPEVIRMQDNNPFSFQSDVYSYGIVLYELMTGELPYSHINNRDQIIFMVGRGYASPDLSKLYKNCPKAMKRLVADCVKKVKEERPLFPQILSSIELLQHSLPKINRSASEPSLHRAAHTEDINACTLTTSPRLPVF
Sequence of HIPK1(h) (Q86Z02 whole entry): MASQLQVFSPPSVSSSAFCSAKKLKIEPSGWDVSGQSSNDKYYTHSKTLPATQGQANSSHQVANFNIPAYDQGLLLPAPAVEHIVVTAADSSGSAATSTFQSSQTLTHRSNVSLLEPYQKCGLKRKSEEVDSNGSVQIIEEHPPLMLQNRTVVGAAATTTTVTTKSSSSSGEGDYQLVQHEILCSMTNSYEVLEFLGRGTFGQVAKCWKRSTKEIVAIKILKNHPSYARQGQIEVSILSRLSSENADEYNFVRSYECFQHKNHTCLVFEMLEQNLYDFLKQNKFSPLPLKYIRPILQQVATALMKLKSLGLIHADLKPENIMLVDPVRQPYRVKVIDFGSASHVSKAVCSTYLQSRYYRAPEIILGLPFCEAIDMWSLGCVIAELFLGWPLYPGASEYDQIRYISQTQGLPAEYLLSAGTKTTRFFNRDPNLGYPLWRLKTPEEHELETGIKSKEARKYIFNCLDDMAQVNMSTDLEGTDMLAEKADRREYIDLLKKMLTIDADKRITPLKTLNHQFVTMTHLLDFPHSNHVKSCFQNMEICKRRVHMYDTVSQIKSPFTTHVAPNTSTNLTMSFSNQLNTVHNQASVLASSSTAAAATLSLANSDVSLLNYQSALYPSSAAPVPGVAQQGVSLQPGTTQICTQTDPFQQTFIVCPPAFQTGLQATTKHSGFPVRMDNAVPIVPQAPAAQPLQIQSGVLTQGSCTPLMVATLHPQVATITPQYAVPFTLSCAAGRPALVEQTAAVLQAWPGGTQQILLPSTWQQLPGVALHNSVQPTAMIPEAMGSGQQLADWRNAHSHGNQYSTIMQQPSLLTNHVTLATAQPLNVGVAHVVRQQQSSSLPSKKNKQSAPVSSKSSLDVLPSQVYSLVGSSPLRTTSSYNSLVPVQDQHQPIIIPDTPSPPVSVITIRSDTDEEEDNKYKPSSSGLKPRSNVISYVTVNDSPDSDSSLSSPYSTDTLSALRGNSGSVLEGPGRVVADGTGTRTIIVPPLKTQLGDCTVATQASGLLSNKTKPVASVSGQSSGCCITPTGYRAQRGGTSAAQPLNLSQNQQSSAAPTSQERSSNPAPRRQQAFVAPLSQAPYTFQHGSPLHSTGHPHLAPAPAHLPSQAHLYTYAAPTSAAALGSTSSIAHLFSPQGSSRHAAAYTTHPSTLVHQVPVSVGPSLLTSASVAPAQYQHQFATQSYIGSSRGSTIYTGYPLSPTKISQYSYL
Sequence of CDK6/cyclinD3(h) (Q00534 whole entry): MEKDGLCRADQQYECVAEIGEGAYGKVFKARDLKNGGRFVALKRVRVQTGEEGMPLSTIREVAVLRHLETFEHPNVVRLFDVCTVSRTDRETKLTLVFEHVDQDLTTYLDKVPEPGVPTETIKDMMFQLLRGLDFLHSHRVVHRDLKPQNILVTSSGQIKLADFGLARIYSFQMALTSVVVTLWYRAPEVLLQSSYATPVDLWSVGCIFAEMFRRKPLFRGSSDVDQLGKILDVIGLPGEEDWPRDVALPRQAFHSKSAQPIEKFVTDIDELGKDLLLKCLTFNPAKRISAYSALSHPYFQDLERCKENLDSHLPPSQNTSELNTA
Sequence of CDK6/cyclinD3(h) (P30281 whole entry partner): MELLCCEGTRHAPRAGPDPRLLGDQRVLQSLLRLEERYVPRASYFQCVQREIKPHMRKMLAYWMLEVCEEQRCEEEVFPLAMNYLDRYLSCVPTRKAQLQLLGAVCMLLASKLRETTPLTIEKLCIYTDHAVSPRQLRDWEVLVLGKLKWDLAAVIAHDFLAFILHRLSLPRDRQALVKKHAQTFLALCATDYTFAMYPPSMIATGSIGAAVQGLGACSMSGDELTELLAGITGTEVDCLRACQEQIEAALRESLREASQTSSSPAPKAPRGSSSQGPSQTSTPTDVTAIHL
Sequence of Pim-1(h) (P11309 whole entry): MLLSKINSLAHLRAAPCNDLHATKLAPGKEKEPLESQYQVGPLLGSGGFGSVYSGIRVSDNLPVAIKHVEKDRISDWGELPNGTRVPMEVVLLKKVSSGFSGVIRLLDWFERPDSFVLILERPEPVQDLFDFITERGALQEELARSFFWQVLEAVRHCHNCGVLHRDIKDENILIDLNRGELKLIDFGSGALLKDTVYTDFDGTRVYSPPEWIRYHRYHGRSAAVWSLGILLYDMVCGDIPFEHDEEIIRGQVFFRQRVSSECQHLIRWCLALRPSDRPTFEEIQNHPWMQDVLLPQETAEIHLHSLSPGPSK
Sequence of CDK5/p25(h) (Q00535 whole entry): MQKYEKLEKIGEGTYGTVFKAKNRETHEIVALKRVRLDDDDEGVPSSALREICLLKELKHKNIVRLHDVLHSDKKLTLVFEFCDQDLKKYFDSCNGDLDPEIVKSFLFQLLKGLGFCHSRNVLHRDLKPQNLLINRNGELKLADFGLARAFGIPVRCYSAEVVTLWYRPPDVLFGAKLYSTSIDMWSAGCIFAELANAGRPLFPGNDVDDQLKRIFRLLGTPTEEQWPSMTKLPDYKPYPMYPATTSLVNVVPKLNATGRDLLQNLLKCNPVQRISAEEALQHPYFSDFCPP
Sequence of CDK5/p25(h) (Q15078 99-307 partner limits assumed): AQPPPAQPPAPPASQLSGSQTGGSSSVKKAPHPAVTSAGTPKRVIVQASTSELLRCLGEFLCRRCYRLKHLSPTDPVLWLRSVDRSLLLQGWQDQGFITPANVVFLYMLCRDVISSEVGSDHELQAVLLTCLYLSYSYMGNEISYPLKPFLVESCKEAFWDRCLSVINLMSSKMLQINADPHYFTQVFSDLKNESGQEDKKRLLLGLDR

Row | inhibition at 1 µM [1] | inhibition at 1 µM [2] | inhibition at 1 µM [3] | inhibition at 1 µM [4] | inhibition at 1 µM [5] | inhibition at 1 µM [6] | inhibition at 1 µM [7] | inhibition at 1 µM [8] | inhibition at 1 µM [9] | inhibition at 1 µM [10] | inhibition at 1 µM [11] | inhibition at 1 µM [12] | inhibition at 1 µM [13] | inhibition at 1 µM [14] | Compound
1 | 82% | -7% | 20% | 94% | 98% | 84% | 23% | -2% | 81% | 29% | 14% | 101% | 15% | 77% | Nc1n[nH]c2ccc(-c3ccnc4[nH]c(-c5ccccc5)cc34)cc12 [Compound 4]
2 | 17% | -5% | 14% | 58% | 86% | 28% | -1% | -24% | 22% | 20% | -11% | 96% | -10% | 41% | Nc1n[nH]c2ccc(-c3ccnc4[nH]c(-c5cccc(OCc6ccccc6)c5)cc34)cc12 [Compound 5r [SU1261]]
3 | -13% | 2% | -5% | 6% | 71% | 17% | 8% | -4% | 2% | 2% | 5% | 92% | 22% | 0% | Nc1n[nH]c2ccc(-c3ccnc4[nH]c(-c5ccnc(OCc6ccccc6)c5)cc34)cc12 [Compound 6g [SU1349]]
